Reference: the SangsterLogP compilation

SMILES	logP
CCCOc1cc(C)c(C(=O)C(C)CN2CCCCC2)c(C)c1 (stereo not drawn)	4.11
CCCOc1ccc(C(=O)C(C)CN2CCCCC2)c(C)c1 (stereo not drawn)	4
CC(C)(CN1CCCCC1)C(=O)c1ccccc1	3.78
Cc1ccc(C(=O)C(C)(C)CN2CCCCC2)cc1	3.92
Cc1cc(C)c(C(=O)C(C)(C)CN2CCCCC2)c(C)c1	4.36
CCCOc1ccc(C(=O)C(C)CN2CCCCC2)cc1 (stereo not drawn)	3.81
Cc1ccc(C(=O)C(C)CN2CCCCC2)cc1 (stereo not drawn)	3.65
CCCOc1ccc(C(=O)C(C)(C)CN2CCCCC2)cc1	4.07
CC(CN1CCCCC1)C(=O)c1ccccc1 (stereo not drawn)	3.51
CCCOc1cc(C)c(C(=O)C(C)(C)CN2CCCCC2)c(C)c1	4.51

More lines, now with the values ahead:

logP	SMILES
3.54	Cc1ccccc1C(=O)CCN1CCCCC1
3.53	Cc1cccc(C)c1C(=O)CCN1CCCCC1
3.85	Cc1ccc(C(=O)C(C)CN2CCCCC2)c(C)c1 (stereo not drawn)
3.71	Cc1ccc(C(=O)CCN2CCCCC2)c(C)c1
3.98	Cc1cc(C)c(C(=O)C(C)CN2CCCCC2)c(C)c1 (stereo not drawn)
3.84	CCCOc1cc(C)c(C(=O)CCN2CCCCC2)c(C)c1
3.72	CCCOc1ccc(C(=O)CCN2CCCCC2)cc1
3.81	Cc1cccc(C)c1C(=O)C(C)CN1CCCCC1 (stereo not drawn)
3.55	Cc1ccc(C(=O)CCN2CCCCC2)cc1
4.2	Cc1cccc(C)c1C(=O)C(C)(C)CN1CCCCC1
3.69	Cc1ccccc1C(=O)C(C)CN1CCCCC1 (stereo not drawn)
3.88	CCCOc1ccc(C(=O)CCN2CCCCC2)c(C)c1
3.7	Cc1cc(C)c(C(=O)CCN2CCCCC2)c(C)c1
